The values that follow come from article PMC11927960, “Multiparameter ranking of carbazoles for anti-trypanosome lead discovery” (Frontiers in drug discovery, 2024).

In series [1] the test system is T. brucei Lister427. In words: Trypanosome proliferation inhibition assay (SYBR Green, 48 h). As to conditions: Trypanosoma brucei; continuous exposure 48 h, 4 × 10^3 trypanosomes/mL. Type of series: cell-based. As to the method: Trypanosome proliferation inhibition assays
T. b. Lister 427 or T. b. AnTat1.1 were seeded at 4 × 10^3 cells/mL or 2 × 10^3 cells/mL (in 50 μL culture medium), respectively, into 384-well black plate (Greiner; Frickenhausen, Germany) and treated with serial dilutions of each compound in duplicate. Plates were incubated for 48 h at 37 °C and 5% CO2. […] Fluorescence in lysates was quantitated with a fluorometer (Fluoroskan Ascent Microplate Fluorometer, Thermo Scientific) (100 ms; ex: 485 nm, em: 538 nm). Each experiment was performed in triplicate.

The nature of series [2]: Brain accumulation (brain to plasma concentration ratio). The following applies: Swiss Webster, mouse. As to the method:
The plasma concentration and tissue distribution of drugs were determined by Absorption Systems. […] Blood and brain samples were obtained at 1, 2, 4, and 6 h post-dosing, and plasma and brain concentrations of the drug were determined using LC-MS/MS. Stock standards for calibration were prepared in a matrix comprising equal volumes of water and mouse blood containing K2-EDTA as an anticoagulant. Working solutions were prepared in 50:50 acetonitrile–water and added to the matrix to final concentrations of 1,000, 500, 100, 50.0, 10.0, 5.00, 1.00, and 0.500 ng/mL for all compounds. Pharmacokinetic parameters were determined using Phoenix WinNonlin (v8.0) software with sparse sampling. Maximum plasma concentration (Cmax) and the time to reach maximum plasma concentration (tmax) were determined from the four data points. The area under the time concentration curve (AUClast) was calculated using the linear trapezoidal rule with calculation to a 6-h data point. Plasma half-life (t1/2) was calculated from 0.693/slope of the terminal elimination phase. Samples below the limit of detection (0.500 ng/mL) were treated as 0. […]
or CBL0187, respectively. Blood and brain samples were obtained at 1, 2, 4, and 6 h post-dosing, and plasma and brain concentrations of the carbazoles were determined using LC-MS/MS. (A) Brain tissue concentrations of curaxins at different time points (B) Ratios of […]
male and female Swiss-wester mice. […]

The test system of series [3] is T. brucei AnTat1.1. Kind of series: Treatment of chronic HAT in a mouse model of disease. Type of series: in vivo, Trypanosoma brucei in Swiss-Webster mice. As to conditions: for Mean parasitemia on day 7 post-infection: CBL0174 60 mg/kg, CBL0187 50 mg/kg orally from day 3, vehicle 1.64 × 10^7; for Outcome in chronic HAT mouse model: oral, CBL0137 40 mg/kg days 2-5, 8-11, 14, 15, CBL0174 60 mg/kg and CBL0187 50 mg/kg days 3-9. As for the experimental part:
Mice were each infected intraperitoneally with Trypanosoma brucei AnTat1.1 (10^4). […] (B) CBL0174 and CBL0187: Groups V, B, and D were given vehicle, CBL0174 (60 mg/kg) and CBL0187 (50 mg/kg), respectively, from day 3 through 9. Different shapes represent individual mice, and horizontal lines in each group denote mean parasitemia determined with a hemocytometer. UND = undetectable; DPI = days post-infection.
Treatment of chronic HAT in a mouse model of disease
Drug efficacy studies in a mouse model of HAT were conducted following recommendations in the “Guide for the Care and Use of Laboratory Animals” of the National Institutes of Health. The protocol was approved by the Institutional Animal Care and Use Committee (IACUC) at the University of Georgia. After the study, the mice were euthanized by CO2 asphyxiation followed by incision to form a bilateral pneumothorax, as approved by the American Veterinary Association.
Female Swiss-Webster mice (20–25 g; 8–10 weeks old) were acclimatized for 1 week before the commencement of the study. […] Parasites in blood collected from a tail venipuncture and diluted 8-fold in RBC lysis buffer (Qiagen) were monitored with a hemocytometer (Neubauer Bright-line). During the study, mice with parasitemia above 10^8 trypanosomes/mL were euthanized for humane reasons. Mice without parasitemia for 90 days were considered cured.

For series [4], the system named is T. brucei Lister427. Kind of series: Delayed trypanocidal assay (6 h exposure, wash-off). Type of series: cell-based, Trypanosoma brucei. As to conditions: starting cell density 1 × 10^5/mL instead of 5 × 10^5/mL.
In series [5] the test system is DNA synthesis in Trypanosoma brucei. In words: DNA synthesis (EdU incorporation). Type of series: cell-based. As to conditions: for Effect on EdU incorporation into nuclei (DNA synthesis): DTC25 (CBL0174 48 nM, CBL0187 54 nM), vs DMSO, p < 0.0001; for DNA Synthesis affected: DTC25, Table S3. As to the method: Incorporated EdU was tracked by clicking with azide-Alexa Fluor-488 and observed with a fluorescence microscope. For quantitation, at least 100 cells were analyzed from each sample. (A) Representative images of the EdU-positive signal (green) with DAPI (blue) in 0.1% DMSO (top), CBL0174-treated (middle), or CBL0187-treated cells (bottom). (B) Representative images for quantitation of nuclear EdU brightness (nEdU). CellProfiler 3.1.9 was used to extract the EdU fluorescence signal over the DAPI area. Lines represent the median with error bars denoting standard deviation (SD) from three biological replicates. The statistical significance of the distribution of EdU brightness in different treatment groups was analyzed with a Mann–Whitney test.
Bloodstream trypanosomes (5 × 10^5 cells/mL) pretreated with DTC25 concentrations of CBL0174 or CBL0187 in HMI-9 medium (for 15 min) were incubated with 5-ethynyl-2′-deoxyuridine (EdU) (Abcam) (300 μM) for 1 h. Cells were prepared as per [Sullenberger et al. (2017)]. Images of trypanosomes were captured using a DeltaVision II Olympus inverted microscope processed with Fiji (ImageJ, v 2.0.0) and analyzed using CellProfiler 3.1.9 ([Sanz-Rodriguez et al., 2022]).

The EC50 is the concentration needed to bring the measured effect to its halfway point. A lower EC50 goes with a more potent agent. As for `CC(=O)c1cc2c3cc(C(C)=O)c(O)cc3n(CCCN(C)C)c2cc1O` [CBL0174, 1-[6-acetyl-9-[3-(dimethylamino)propyl]-2,7-dihydroxy-carbazol-3-yl]ethanone], in series [1], the half-maximal effective concentration (EC50) came out at 21 nM. Moreover, in series [2] (brain, oral), the Kp came to 26.9. This compound registered a Kp in series [2] (in vivo, po) of 27.9. In series [3], the “Mean parasitemia on day 7 post-infection” value is 8.22 × 10^7 ± 6.64 × 10^6 trypanosomes/mL and the “Outcome in chronic HAT mouse model” value is “failed to control parasitemia”. Moreover, in series [4], the “DTC25 T. brucei Lister427 (value in parenthesis)” value is 60 nM, the “DTC50 T. brucei Lister427 (value in parenthesis)” value is on record as 122 nM and the “DTC90 T. brucei Lister427 (value in parenthesis)” value is recorded as 513 nM. Also, in series [5], the “Effect on EdU incorporation into nuclei (DNA synthesis)” value is reported as “inhibited EdU incorporation into nuclei” and the “DNA Synthesis affected” value was “Yes”.

In series [1], `CC(=O)c1cc2c3cc(C(C)=O)c(O)cc3n(CCNC(C)C)c2cc1O` [CBL0187, 1-[6-acetyl-2,7-dihydroxy-9-[2-(isopropylamino)ethyl]carbazol-3-yl]ethanone] displayed a concentration for a half-maximal effect (EC50) of 8.9 nM. For the same compound, the Kp in series [2] (brain, oral) came out at 15.9. In series [3], the “Mean parasitemia on day 7 post-infection” value was 8.99 × 10^7 ± 2.43 × 10^7 trypanosomes/mL and the “Outcome in chronic HAT mouse model” value is recorded as “failed to control parasitemia”. Moreover, in series [4], the “DTC25 T. brucei Lister427 (value in parenthesis)” value amounted to 41 nM, the “DTC50 T. brucei Lister427 (value in parenthesis)” value is on record as 98 nM and the “DTC90 T. brucei Lister427 (value in parenthesis)” value was determined as 592 nM. Besides, in series [5], the “Effect on EdU incorporation into nuclei (DNA synthesis)” value was “inhibited EdU incorporation into nuclei” and the “DNA Synthesis affected” value is given as “Yes”.
